Experimental data reported in publication PMC9157788, “Design, Synthesis, and Apoptosis-Promoting Effect Evaluation of Rhopaladins’ Analog 4-Arylidene-5-Oxopyrrolidine Derivatives” (Frontiers in Chemistry, 2022).

Key:
Bcl-2 = test: Western blot, Bcl-2 expression in 7402 cells; assay type: cell-based, human; details: 7402, 25 μM, 48 h, vs DMSO control, p < 0.01
Description: (§1) The experimental steps of the Western blotting assay referred to Lin’s study ([Lin et al., 2020]). After treatment with different concentrations of RPDPRH (0, 6.25, 12.5, and 25 μM) for 48 h, hepatocarcinoma cells were lysed with an ice-cold RIPA protein lysis buffer (Beyotime, China). Total cell lysates were prepared with RIPA lysis buffer containing phosphatase inhibitors (Roche, China) and protease inhibitors (MedChemExpress, United States). Total cell lysates were centrifuged at 10,000 g for 10 min at 4°C to obtain the supernatant. The protein concentration was detected according to the BCA Protein Assay Kit (Beyotime, China). Then, 5× SDS loading buffer (Beyotime, China) was added to the supernatant and boiled at 100°C for 10 min. The obtained protein samples were stored at −80°C.
(§2) The protein samples (20 μg) were resolved on 4% concentration glue and 12% separating glue and prepared according to the SDS-PAGE Gel Quick Preparation Kit procedure (Beyotime, China). After electrophoresis at 80 V for 1.5–2 h, the proteins were wet-transferred onto a polyvinylidene difluoride membrane (PVDF, Millipore) at 300 mA for 1–1.5 h. […]

HepG2 cells [1] = test: Annexin V-FITC/PI flow cytometry apoptosis assay, HepG2; assay type: cell-based, human; details: 48 h; for total apoptosis rate: DMSO control 7.73 ± 2.18%
Description: The effect of RPDPRH on apoptosis was performed using the Annexin V-FITC/PI Apoptosis kit (MultiSciences, China), following the manufacturer’s protocol. The cells were digested, dispersed, and plated into six-well plates with 2 × 10^4 cells/well and treated with RPDPRH (0, 6.25, 12.5, and 25 μM) at various concentrations for 48 h. Upon completion of the treatment, cells were harvested, washed with cool phosphate buffered solution (PBS, Gibco, United States) (0.01 M, pH=7.4), and re-suspended in a 500 μl binding buffer. Annexin V-FITC (5 μl) and PI (10 μl) were added into the cell suspension, and then, the suspension was incubated at room temperature away from light for 5 min. Cells were analyzed by using a flow cytometer (Agilent NovoCyte, China) immediately, and the results of the apoptosis were analyzed by FlowJo software.

HepG2 cells [2] = test: Wound healing assay, HepG2; assay type: cell-based, human; details: 48 h
Description: The experimental procedures were performed according to conventional methods ([Kovaříková et al., 2014]). Hepatocarcinoma cells at the logarithmic growth stage were taken and inoculated into six-well plates with 2 × 10^4 cells/well. When the cell density is about 80%, the cell wound was scratched with pipette tips. Cells were then washed with PBS and added to the cell culture broth containing 1% serum with varying concentrations of RPDPRH (0 μM, 6.25, 12.5, and 25 μM) for 48 h. Pictures were taken at 0 and 48 h under a microscope (100×). Wound healing rate (%) = [(0 h scratch distance−48 h scratch distance)/0 h scratch distance] × 100%.

7402 cells = test: MTT cell viability assay, 7402; assay type: cell-based; details: Homo sapiens, 48 h, read-out: Half inhibitory concentration (IC50), 7402
Description: HepG2 (human epidermoid hepatocellular carcinoma cell), 7402 (human epidermoid hepatocellular carcinoma cell), C-33A (human epidermoid cervical carcinoma cell), and HeLa (human epidermoid cervical adenocarcinoma cell) were incubated in Dulbecco’s modified Eagle’s medium (DMEM), which was purchased from Gibco (Grand Island, NY, United States). SiHa cells (human epidermoid cervical squamous cell carcinoma) were incubated in minimum essential medium (MEM, also from Gibco). CaSki (human epidermoid cervical carcinoma cell) and LO2 (human normal liver cell) were incubated in minimum essential medium (MEM, also from Gibco). All cells were maintained at 37°C in a humidified incubator with 5% carbon dioxide, and the media contained 10% fetal bovine serum (FBS, Corning, United States) and 1% penicillin–streptomycin antibiotic solution (Corning, United States). SiHa and CaSki were bought from the China Center for Type Culture Collection (CCTCC). The other five types of cancer cell lines were obtained from the Experiment Center of Medicine, Sinopharm Dongfeng Hospital, Hubei University of Medicine. The compounds were dissolved in dimethyl sulfoxide (DMSO, MP Biomedicals, United States), and cisplatin was purchased from Aladdin, Shanghai, China. The control (0 μM) group was treated with DMSO only in the same conditions, and the DMSO content in the medium was less than 0.1%.
Cell viability was measured by a 3-(4,5-dimethylthiazol-2-yl)-2,5-diphenyltetrazolium bromide (MTT, MultiSciences, China) assay. The specific experimental steps referred to our previous research ([Zhu et al., 2020]). For each cell line, cells were digested and seeded in 96-well plates at a density of 1 × 10^3 cells/well. […] Then, the formed formazan crystals were dissolved in DMSO, and the plates were estimated in a […] microplate reader (BioTek Inc., Bio-Tek MQX200) at a wavelength of 490 nm. Optical density (OD) values were obtained, and the inhibition rate and IC50 of each compound on different cells were calculated by GraphPad Prism 8.0.1 software. […]

Bax [3] = test: Western blot, Bax expression in 7402 cells; assay type: cell-based, human; details: 7402, 25 μM, 48 h, vs DMSO control
Description: as §1, §2

Bax [4] = test: Western blot, Bax expression in HepG2 cells; assay type: cell-based, human; details: HepG2, 25 μM, 48 h, vs DMSO control
Description: as §1, §2

`O=C1/C(=C/c2ccc(Cl)cc2)CC(/C=C/c2ccc(Cl)cc2)(C(=O)NC2CCCCC2)N1c1ccc(F)cc1` (centres unmarked) [RPDPRH, (2E, 4E)-4-(4-chlorobenzylidene)-2-(4-chlorostyryl)-N-cyclohexyl-1-(4-fluorophenyl)-5-oxopyrrolidine-2-carboxamide] was tested, and the “expression of anti-apoptotic protein Bcl-2” value (Bcl-2) was “decrease”, the “early apoptotic cell (LR) rate” value (HepG2 cells [1]; HepG2, 6.25 μM) was 5.53% and the “late apoptotic (UR) rate” value (HepG2 cells [1]; HepG2, 6.25 μM) was 5.07%. For the same molecule, the total apoptosis rate (HepG2 cells [1]; HepG2, 6.25 μM) was 10.6 ± 1.49%, the “early apoptotic cell (LR) rate” value (HepG2 cells [1]; HepG2, 12.5 μM) was 14.90% and the “late apoptotic (UR) rate” value (HepG2 cells [1]; HepG2, 12.5 μM) was 21.00%. The total apoptosis rate (HepG2 cells [1]; HepG2, 12.5 μM) was 35.90 ± 2.51%, the “early apoptotic cell (LR) rate” value (HepG2 cells [1]; HepG2, 25 μM) was 19.80% and the “late apoptotic (UR) rate” value (HepG2 cells [1]; HepG2, 25 μM) was 32.30%. The total apoptosis rate (HepG2 cells [1]; HepG2, 25 μM) was 52.10 ± 4.49%, the wound healing rate (HepG2 cells [2]; HepG2, 25 μM, vs DMSO control, p < 0.001) was “significantly decreased” and the wound healing rate (HepG2 cells [2]; HepG2, 6.25, 12.5 and 25 μM) was “significantly reduced”. For the same molecule, the IC50 (7402 cells) was 22.4 µM, the “ratio of Bax/Bcl-2” value (Bax [3]) was “increase obviously” and the “expression of pro-apoptotic protein Bax” value (Bax [3]; p < 0.05) was “significant increase”. The “ratio of Bax/Bcl-2” value (Bax [4]) was “increase obviously” and the “expression of pro-apoptotic protein Bax” value (Bax [4]; p < 0.05) was “significant increase”.
